Where two headings read alike, the source gives them in different places.
What was measured:
histamine-3 receptor [1] = target: T1, histamine-3 receptor (Homo sapiens, UniProt Q9Y5N1); assay: Histamine analogue-binding inhibition test ([3H]N-α-methylhistamine binding to membrane specimen); details: membrane of histamine-3 receptor expressing cells, 25° C., 2 hours; read-out: 50% inhibitory concentration (IC50) to specific N-α-methylhistamine binding
T1 construct: expressed in transfected cells; host or cells: HEK293 and CHO-K1 (membrane specimen)
T1 sequence (Q9Y5N1 whole entry): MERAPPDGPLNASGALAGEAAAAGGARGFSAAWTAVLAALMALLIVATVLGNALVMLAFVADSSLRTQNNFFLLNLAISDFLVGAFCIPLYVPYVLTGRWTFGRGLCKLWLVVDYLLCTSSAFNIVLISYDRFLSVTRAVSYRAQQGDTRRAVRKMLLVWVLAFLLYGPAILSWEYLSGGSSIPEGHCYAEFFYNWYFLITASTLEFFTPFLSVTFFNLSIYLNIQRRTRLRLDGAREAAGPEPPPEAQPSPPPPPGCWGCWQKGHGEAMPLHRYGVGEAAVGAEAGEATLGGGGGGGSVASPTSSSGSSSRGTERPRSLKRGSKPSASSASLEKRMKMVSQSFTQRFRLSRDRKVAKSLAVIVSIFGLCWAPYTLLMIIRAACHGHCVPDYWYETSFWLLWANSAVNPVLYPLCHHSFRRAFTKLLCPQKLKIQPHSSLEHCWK
Text: (§1) A cDNA sequence coding for a human histamine-3 receptor [see International Patent Application WO00/39164) was cloned with expression vectors pCR2.1, pEF1x (by Invitrogen) and pCI-neo (by Promega). The resulting expression vector was transfected into host cells, HEK293 and CHO-K1 (American Type Culture Collection), according to a cationic lipid process [see Proceedings of the National Academy of Sciences of the United States of America, Vol., 84, p. 7413 (1987)] to obtain histamine-3 receptor expression cells.
A membrane specimen prepared from the cells having expressed a histamine-3 receptor was incubated in an assay buffer (50 mM Tris buffer, pH 7.4) along with a test compound and 20,000 cpm of [^3H]-α-methylhistamine (by NEN) therein at 25° C. for 2 hours, and then filtered through a glass filter GF/C. This was washed with 50 mM Tris buffer (ph 7.4), and the radioactivity on the glass filter was measured. The non-specific binding was determined in the presence of 10 μM thioperamide (by SIGAM), and the 50% inhibitory concentration (IC50) of the test compound to specific N-α-methylhistamine binding was calculated [see Molecular Pharmacology, Vol. 55, p. 1101 (1999)].

histamine-3 receptor [2] = target: T1, histamine-3 receptor; assay: Histamine analogue-binding inhibition test ([35S]GTPγS binding in presence of R-methylhistamine, SPA); assay type: biochemical; details: 20 nM R-methylhistamine, 25° C., 3 hours; read-out: IC50 (nM) to specific [35S]GTPγS binding
Text: as §1
A membrane specimen prepared from the cells having expressed a histamine-3 receptor was incubated in an assay buffer (50 mM Tris buffer, 100 mM NaCl, 5 mM MgCl2, pH 7.4) along with a test compound, 20 nM R-methylhistamine (histamine analogue, by Sigma), 10 μM GDP (guanine-nucleotide diphosphate, by Sigma), […] [^35S] GTPγS (guanine-nucleotide triphosphate analogue, by Amersham) and SPA resin (wheatgerm agglutinin SPA beads, by Amersham) therein on a 96-well optiplate (by Packard) at 25° C. for 3 hours and then centrifuged at 3,000 rpm, and its activity was counted with Topcount (by Packard). The non-specific binding was determined in the presence of 10 μM GTPγS (by Sigma), and the 50% inhibitory concentration (IC50) of the test compound to specific N[^35S] GTPγS binding was calculated [see British Journal of Pharmacology, Vol. 135, p. 383 (2002)].

[3] = Test for internal kinetics; assay type: in vivo, rat; details: SD male rats, oral or intravenous administration
Experimental: A test compound was orally or intravenously administered to SD male rats (7 to 10 weeks-age, 200 to 400 g) kept away from eating and drinking overnight, and using a heparinization capillary within a predetermined period of time, about 100 μl of the blood was collected from them via their tail vein. The blood was centrifuged (4° C., 6000 rpm, 10 minutes) to collect its plasma. Ethanol (including an internal standard substance) was added to the plasma in an amount of 3 times that of the plasma, and stirred, and left statically at −20° C. for 20 minutes, and then this was centrifuged (4° C., 10,000 rpm, 10 minutes). The supernatant was analyzed through LC/MS/MS, and the plasma concentration of the compound was quantified according to a relative calibration curve method.

[4] = Brain/cerebrospinal fluid migration test; assay type: in vivo, rat; details: SD male rats, 2 hours after oral administration (10 mg/kg); for concentration at 2 h: rat
Text: A test compound was orally or intravenously administered to SD male rats (7 to 10 weeks-age, 200 to 400 g), and while anesthetized with ether for a predetermined period of time, the whole blood was collected from the abdominal aorta of the rats, using a heparin-processed syringe. Next, the brain skin was cut opened and a 30 G needle for dental use was pierced between the cervical vertebrae and inserted into the subarachnoid cavity. Through the tube connected with the dental 30 G needle, from 50 to 100 μl of the cerebrospinal fluid was collected into a 1-ml syringe, and then the brain was taken out. The blood sample was centrifuged (4° C., 6000 rpm, 10 minutes), and the resulting plasma was stirred with ethanol (including an internal standard substance) added thereto in an amount of 3 times the plasma. 2 ml of water was added to the brain sample and homogenized, and a part of the resulting mixture was stirred with ethanol (including an internal standard substance) added thereto in an amount of 3 times the mixture. These samples were kept at −20° C. for 20 minutes, and then centrifuged (4° C., 12,000 g, 10 minutes), and the resulting supernatant was analyzed through LC/MS/MS. According to a relative calibration curve method, the concentration of the test compound in the plasma, the brain and the cerebrospinal fluid was quantified.

Structure (SMILES) | IC50 (histamine-3 receptor [2]) | further results
CS(=O)(=O)c1ccc(-c2cnc(OC3CCN(C4CCCC4)CC3)nc2)cc1 [Example 37, 2-(1-cyclopentylpiperidin-4-yloxy)-5-{4-(methylsulfonyl)phenyl}pyrimidine] | 1.3 nM | 
Cn1cc(-c2ccc(OC3CCN(C4CCC4)CC3)nc2)ccc1=O [Example 65, 2-(1-cyclobutylpiperidin-4-yloxy)-5-{1-methyl-1H-pyridin-2-on-5-yl}pyridine] | 0.45 nM | 
CC(C)N1CCC(Oc2ccc(-c3ccc(=O)n(C)c3)cn2)CC1 [Example 68, 2-(1-isopropylpiperidin-4-yloxy)-5-{1-methyl-1H-pyridin-2-on-5-yl}pyridine] | 1.4 nM | 

Further lines, with some results ahead:

IC50 (histamine-3 receptor [2]) | Structure (SMILES) | further results
1.9 nM | N#Cc1ccc(-c2cnc(OC3CCN(C4CCCC4)CC3)nc2)cc1 [Example 1, 2-(1-cyclopentylpiperidin-4-yloxy)-5-(4-cyanophenyl)pyrimidine] | IC50 (histamine-3 receptor [1]): 15 nM; half-value period in blood [3]: 5.3 h; bioavailability ([3]; rat, plasma): 53%; brain concentration [4]: 6.18 nmol/g; concentration at 2 h ([4]; cerebrospinal fluid, read-out: cerebrospinal fluid concentration): 128 nM; concentration at 2 h ([4]; plasma, read-out: plasma concentration): 540 nM
1.2 nM | O=C(c1ccc(-c2cnc(OC3CCN(C4CCCC4)CC3)nc2)cc1)N1CCCC1 [Example 11, 2-(1-cyclopentylpiperidin-4-yloxy)-5-{4-(pyrrolidin-1-ylcarbonyl)phenyl}pyrimidine] | 
1.4 nM | FC(F)(F)c1ccc(-c2cnc(OC3CCN(C4CCCC4)CC3)nc2)cc1 [Example 23, 2-(1-cyclopentylpiperidin-4-yloxy)-5-(4-trifluoromethylphenyl)pyrimidine] | 
1.2 nM | c1cn2cnnc2cc1-c1cnc(OC2CCN(C3CCCC3)CC2)nc1 [Example 60, 2-(1-cyclopentylpiperidin-4-yloxy)-5-(1,2,4-triazolo[4,3,a]pyridin-7-yl)pyrimidine] | 

From patent publication US8044070B2, “Heteroaryloxy nitrogenous saturated heterocyclic derivative” (MSD K.K., priority 2003, dated 2011)
